Experimental data published in patent US20030237104A1 (priority 2002, published 2003).
Where two headings read alike, the source gives them in different places.

How the values were obtained:
CB6F1-HRAS2 mice = settings: in vivo
Salmonella = settings: cited from earlier work
non-Tg mice (CB6F1) = settings: mouse, in vivo
rasH2 mice = settings: mouse, in vivo, ip; cited from earlier work
CB6F1-Tg-rasH2 mice = settings: mouse, in vivo, ip, 75 mg/kg
[1] = CB6F1-HRAS2 and non-Tg CB6F1, mouse
[2] = CB6F1-HRAS2, mouse, sc, 15 mg/kg
[3] = CB6F1-HRAS2, mouse, ip, 60 mg/kg

Structure (SMILES): [O-][n+]1ccc(NO)c2ccccc21 [4HAQO, 4-Hydroxyaminoquinoline-1-oxide]
- tumors in the exocrine portion of the pancreas (CB6F1-HRAS2 mice; [1]): Neither the 4HAQO-treated Tg nor the non-Tg mice developed tumors
- Malignant Tumors Tg (CB6F1-HRAS2 mice; mouse): ++
- Rapid tumor response in Tg mice (CB6F1-HRAS2 mice; mouse): +
- Tumor incidence and/or multiplicity (CB6F1-HRAS2 mice; mouse): Tg > non-Tg
- forestomach and skin papillomas (CB6F1-HRAS2 mice; mouse): induced
- other tumors (e.g., leukemias and thymomas) (CB6F1-HRAS2 mice; mouse): observed only in the Tg mice
- Genotoxicity (Salmonella) (Salmonella): +
- Malignant Tumors Non-Tg (non-Tg mice (CB6F1)): +
- forestomach and skin papillomas (non-Tg mice (CB6F1)): hardly observed

Structure (SMILES): O=[N+]([O-])c1cc[n+]([O-])c2ccccc12 [4NQO, 4-Nitroquinoline-1-oxide]
- lung adenocarcinomas (CB6F1-HRAS2 mice; [2]): observed only in 4NQO-treated CB6F1-HRAS2 mice
- squamous cell carcinomas of skin (CB6F1-HRAS2 mice; [2]): observed only in 4NQO-treated CB6F1-HRAS2 mice
- mice bearing skin papillomas (CB6F1-HRAS2 mice; both, CB6F1-HRAS2, mouse, sc, 15 mg/kg): Approximately 90%
- Malignant Tumors Tg (CB6F1-HRAS2 mice; mouse): +
- Rapid tumor response in Tg mice (CB6F1-HRAS2 mice; mouse): +
- Tumor incidence and/or multiplicity (CB6F1-HRAS2 mice; mouse): Tg > non-Tg
- incidence of lung adenoma (CB6F1-HRAS2 mice; mouse, sc, 15 mg/kg): higher than that in corresponding non-Tg mice
- Malignant Tumors Non-Tg (non-Tg mice (CB6F1)): −
- skin tumors (non-Tg mice (CB6F1); sc, 15 mg/kg): No skin tumors were observed

Structure (SMILES): O=P1(N(CCCl)CCCl)NCCCO1 (centres unmarked) [Cyclophosphamide]
- adenocarcinomas (lung) (CB6F1-HRAS2 mice; CB6F1-HRAS2, mouse): observed only in one cyclophosphamide-treated male CB6F1-HRAS2 mouse
- Malignant Tumors Tg (CB6F1-HRAS2 mice; mouse): +
- Tumor incidence and/or multiplicity (CB6F1-HRAS2 mice; mouse): Tg ÷ non-Tg
- incidence and multiplicity of lung adenoma (CB6F1-HRAS2 mice; mouse): not significantly higher
- incidence of lung adenoma (CB6F1-HRAS2 mice; mouse): not significantly different from that in corresponding non-Tg mice
- lung tumors (CB6F1-HRAS2 mice; mouse): induced lung tumors
- tumors in other organs (bladder, mammary gland, lymphatic systems) (CB6F1-HRAS2 mice; mouse): No tumor was observed
- Genotoxicity (Salmonella) (Salmonella): +
- Malignant Tumors Non-Tg (non-Tg mice (CB6F1)): −

Structure (SMILES): S=C1NCCN1 [Ethylene thiourea]
- incidence of thyroid adenocarcinoma (CB6F1-HRAS2 mice; female, CB6F1-HRAS2, mouse): 9%
- thyroid adenomas incidence (CB6F1-HRAS2 mice; female, CB6F1-HRAS2, mouse): 26%
- Malignant Tumors Tg (CB6F1-HRAS2 mice; mouse): +
- Tumor incidence and/or multiplicity (CB6F1-HRAS2 mice; mouse): Tg ÷ non-Tg
- thyroid tumors (CB6F1-HRAS2 mice; mouse): did not induce
- Genotoxicity (Salmonella) (Salmonella): −
- Salmonella mutagenesis assay result (Salmonella): negative
- incidence of thyroid adenocarcinoma (non-Tg mice (CB6F1); female, CB6F1 (non-Tg)): 4%
- thyroid adenomas incidence (non-Tg mice (CB6F1); female, CB6F1 (non-Tg)): 20%
- Malignant Tumors Non-Tg (non-Tg mice (CB6F1)): +

Structure (SMILES): C[N+]([O-])=NCO [MAM, Methylazoxymethanol]
- Malignant Tumors Tg (CB6F1-HRAS2 mice; mouse): +
- Tumor incidence and/or multiplicity (CB6F1-HRAS2 mice; mouse): Tg > non-Tg^c
- incidence and multiplicity of lung adenoma (CB6F1-HRAS2 mice; mouse): not significantly higher
- lung adenoma incidence (CB6F1-HRAS2 mice; mouse, sc, 20 mg/kg): similar
- Genotoxicity (Salmonella) (Salmonella): +
- Malignant Tumors Non-Tg (non-Tg mice (CB6F1)): −

Structure (SMILES): CN(N=O)C(N)=O [MNU, N-Methyl-N-nitrosourea]
- forestomach and skin papillomas (rasH2 mice): higher incidence
- forestomach squamous cell carcinoma (CB6F1-HRAS2 mice; CB6F1-HRAS2, mouse): seen only in MNU-treated CB6F1-HRAS2 mice
- Malignant Tumors Tg (CB6F1-HRAS2 mice; mouse): +
- Rapid tumor response in Tg mice (CB6F1-HRAS2 mice; mouse): +
- Tumor incidence and/or multiplicity (CB6F1-HRAS2 mice; mouse): Tg > non-Tg
- forestomach papillomas (CB6F1-HRAS2 mice; mouse): high incidence
- incidence and multiplicity of lung adenoma (CB6F1-HRAS2 mice; mouse): not significantly higher
- incidence of skin papilloma (CB6F1-HRAS2 mice; mouse): significantly high incidence
- incidence of lymphoma (CB6F1-HRAS2 mice; mouse, 75 mg/kg): higher
- Genotoxicity (Salmonella) (Salmonella): +
- Malignant Tumors Non-Tg (non-Tg mice (CB6F1)): −
- forestomach papillomas (non-Tg mice (CB6F1)): no papillomas
- skin papillomas and hyperplasias (non-Tg mice (CB6F1)): did not induce
- incidences of forestomach tumor and malignant lymphoma among institutions (CB6F1-Tg-rasH2 mice): High and consistent incidences
- incidences of tumor (squamous cell tumor in forestomach, skin, vagina; Harderian gland carcinoma; lung adenomas; malignant lymphoma) (CB6F1-Tg-rasH2 mice): increased

Structure (SMILES): C=COC(N)=O [Vinyl carbamate]
- lung adenocarcinomas incidence (CB6F1-HRAS2 mice; [3]): 50%
- lung adenomas incidence (CB6F1-HRAS2 mice; [3]): 100%
- mice bearing spleen hemangiosarcomas (CB6F1-HRAS2 mice; [3]): Approximately 90%
- liver tumors (CB6F1-HRAS2 mice; [1]): neither CB6F1-HRAS2 mice nor control non-Tg mice treated with these compounds developed liver tumors
- Malignant Tumors Tg (CB6F1-HRAS2 mice; mouse): ++
- Rapid tumor response in Tg mice (CB6F1-HRAS2 mice; mouse): +
- Tumor incidence and/or multiplicity (CB6F1-HRAS2 mice; mouse): Tg > non-Tg
- Genotoxicity (Salmonella) (Salmonella): +
- lung adenomas incidence (non-Tg mice (CB6F1); CB6F1 (non-Tg), ip, 60 mg/kg): > 90%
- Malignant Tumors Non-Tg (non-Tg mice (CB6F1)): +
- incidence of lung adenocarcinoma (non-Tg mice (CB6F1); ip, 60 mg/kg): much lower
- spleen hemangiosarcomas (non-Tg mice (CB6F1); ip, 60 mg/kg): none developed
- tumor multiplication (lung adenomas) (non-Tg mice (CB6F1); ip, 60 mg/kg): lower
